# Assay results taken from patent publication US4122034A, “Antimicrobial compositions” (Schering Corporation, priority 1975, dated 1978).
# Assays:
# Assay in all cases: In vitro antibacterial activity, dilution in Mueller Hinton Agar (Table I)
# Type in all cases: cell-based
# Proteus morganii = details: Morganella morganii; strain Valz; Mueller Hinton Agar pH 7.4
# Outline: (§1)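 Agar dilution at pH 7.4, run and scored under standard conditions. Values are minimum inhibitory concentrations (MIC).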
# Proteus vulgaris = details: strain Napol, Mueller Hinton Agar pH 7.4
# Outline: as §1
# Klebsiella = system: Klebsiella
# Outline: as §1
# Salmonella = system: Salmonella
# Outline: as §1
# Proteus rettgeri = details: Providencia rettgeri; 'Proteus rettgeri mirabilis' [sic]; Mueller Hinton Agar pH 7.4
# Outline: as §1
# Proteus mirabilis = details: Mueller Hinton Agar pH 7.4
# Outline: as §1
# Streptococcus pyogenes = system: Streptococcus pyogenes
# Outline: as §1
# Escherichia coli = system: Escherichia coli
# Outline: as §1
# Pseudomonas acruginosa = system: Pseudomonas acruginosa
# Outline: as §1
# Staphylococcus aureus = details: Mueller Hinton Agar pH 7.4
# Outline: as §1
# [1] = pH 7.4, strain 121, Mueller Hinton Agar pH 7.4
# [2] = pH 7.4, strain 3020, Mueller Hinton Agar pH 7.4
# [3] = pH 7.4, strain AD17, Mueller Hinton Agar pH 7.4
# [4] = pH 7.4, strain AD22, Mueller Hinton Agar pH 7.4
# [5] = pH 7.4, strain G3694, Mueller Hinton Agar pH 7.4
# [6] = TYPHI, pH 7.4, B typhi, Mueller Hinton Agar pH 7.4
# [7] = pH 7.4, C1 Oao, Mueller Hinton Agar pH 7.4
# [8] = pH 7.4, C2 Cuban, Mueller Hinton Agar pH 7.4
# [9] = pH 7.4, C2 Napc, Mueller Hinton Agar pH 7.4
# [10] = pH 7.4, Salmonella ent. 1, Mueller Hinton Agar pH 7.4
# [11] = pH 7.4, strain 27, Mueller Hinton Agar pH 7.4
# [12] = pH 7.4, strain C, Mueller Hinton Agar pH 7.4
# [13] = pH 7.4, strain Cruz, Mueller Hinton Agar pH 7.4
# [14] = pH 7.4, strain 777, Mueller Hinton Agar pH 7.4
# [15] = pH 7.4, strain 1574-1, Mueller Hinton Agar pH 7.4
# [16] = pH 7.4, strain 4195, Mueller Hinton Agar pH 7.4
# [17] = pH 7.4, strain 10536, Mueller Hinton Agar pH 7.4
# [18] = pH 7.4, strain JR66, Mueller Hinton Agar pH 7.4
# [19] = pH 7.4, strain 130, Mueller Hinton Agar pH 7.4
# [20] = pH 7.4, strain 138, Mueller Hinton Agar pH 7.4
# [21] = pH 7.4, strain 762, Mueller Hinton Agar pH 7.4
# [22] = pH 7.4, strain 8709, Mueller Hinton Agar pH 7.4
# [23] = pH 7.4, strain Trav. 1, Mueller Hinton Agar pH 7.4
SMILES,MIC (Proteus morganii),MIC (Proteus vulgaris),MIC (Klebsiella; [1]),MIC (Klebsiella; [2]),MIC (Klebsiella; [3]),MIC (Klebsiella; [4]),MIC (Klebsiella; [5]),MIC (Salmonella; [6]),MIC (Salmonella; [7]),MIC (Salmonella; [8]),MIC (Salmonella; [9]),MIC (Salmonella; [10]),MIC (Proteus rettgeri),"MIC (Proteus mirabilis; pH 7.4, strain Hard)","MIC (Proteus mirabilis; pH 7.4, strain Peras)",MIC (Streptococcus pyogenes; [11]),MIC (Streptococcus pyogenes; [12]),MIC (Streptococcus pyogenes; [13]),MIC (Escherichia coli; [14]),MIC (Escherichia coli; [15]),further results
"NCc1[nH]c2ccc(Cl)cc2c1-c1ccccc1F [A, 2-Aminomethyl-5-chloro-3-(2-fluorophenyl)indole]",17.5 µg/mL,17.5 µg/mL,7.5 µg/mL,7.5 µg/mL,7.5 µg/mL,7.5 µg/mL,7.5 µg/mL,7.5 µg/mL,7.5 µg/mL,7.5 µg/mL,3 µg/mL,7.5 µg/mL,17.5 µg/mL,17.5 µg/mL,7.5 µg/mL,7.5 µg/mL,7.5 µg/mL,3 µg/mL,3 µg/mL,7.5 µg/mL,"MIC (Escherichia coli; [16]): 3 µg/mL; MIC (Escherichia coli; [17]): 7.5 µg/mL; MIC (Escherichia coli; [18]): 3 µg/mL; MIC (Pseudomonas acruginosa; [19]): 17.5 µg/mL; MIC (Pseudomonas acruginosa; [20]): 17.5 µg/mL; MIC (Pseudomonas acruginosa; [21]): 17.5 µg/mL; MIC (Pseudomonas acruginosa; [22]): 17.5 µg/mL; MIC (Pseudomonas acruginosa; [23]): 17.5 µg/mL; MIC (Staphylococcus aureus; 209P, pH 7.4, strain 209P): 7.5 µg/mL; MIC (Staphylococcus aureus; pH 7.4, strain 59N): 3 µg/mL; MIC (Staphylococcus aureus; pH 7.4, strain Gray): 7.5 µg/mL; MIC (Staphylococcus aureus; pH 7.4, strain Wood): 3 µg/mL; MIC (Staphylococcus aureus; pH 7.4, strain Zeigler): 3 µg/mL"
"NCc1[nH]c2ccc(Cl)cc2c1-c1c(F)cccc1F [B, 2-aminomethyl-5-chloro-3-(2,6-difluorophenyl)indole]",17.5 µg/mL,17.5 µg/mL,17.5 µg/mL,7.5 µg/mL,17.5 µg/mL,7.5 µg/mL,7.5 µg/mL,7.5 µg/mL,7.5 µg/mL,7.5 µg/mL,7.5 µg/mL,7.5 µg/mL,17.5 µg/mL,17.5 µg/mL,37.5 µg/mL,7.5 µg/mL,17.5 µg/mL,3 µg/mL,7.5 µg/mL,7.5 µg/mL,"MIC (Escherichia coli; [16]): 7.5 µg/mL; MIC (Escherichia coli; [17]): 7.5 µg/mL; MIC (Escherichia coli; [18]): 7.5 µg/mL; MIC (Pseudomonas acruginosa; [19]): 17.5 µg/mL; MIC (Pseudomonas acruginosa; [20]): 17.5 µg/mL; MIC (Pseudomonas acruginosa; [21]): 17.5 µg/mL; MIC (Pseudomonas acruginosa; [22]): 17.5 µg/mL; MIC (Pseudomonas acruginosa; [23]): 17.5 µg/mL; MIC (Staphylococcus aureus; 209P, pH 7.4, strain 209P): 7.5 µg/mL; MIC (Staphylococcus aureus; pH 7.4, strain 59N): 7.5 µg/mL; MIC (Staphylococcus aureus; pH 7.4, strain Gray): 7.5 µg/mL; MIC (Staphylococcus aureus; pH 7.4, strain Wood): 7.5 µg/mL; MIC (Staphylococcus aureus; pH 7.4, strain Zeigler): 7.5 µg/mL"
"NCc1[nH]c2ccc(Cl)cc2c1-c1ccccc1 [C, 2-(1-aminomethyl)-5-chloro-3-phenylindole]",7.5 µg/mL,7.5 µg/mL,3 µg/mL,3 µg/mL,7.5 µg/mL,3 µg/mL,3 µg/mL,3 µg/mL,3 µg/mL,3 µg/mL,3 µg/mL,7.5 µg/mL,7.5 µg/mL,7.5 µg/mL,7.5 µg/mL,7.5 µg/mL,7.5 µg/mL,3 µg/mL,3 µg/mL,3 µg/mL,"MIC (Escherichia coli; [16]): 3 µg/mL; MIC (Escherichia coli; [17]): 7.5 µg/mL; MIC (Escherichia coli; [18]): 3 µg/mL; MIC (Pseudomonas acruginosa; [19]): 17.5 µg/mL; MIC (Pseudomonas acruginosa; [20]): 17.5 µg/mL; MIC (Pseudomonas acruginosa; [21]): 37.5 µg/mL; MIC (Pseudomonas acruginosa; [22]): 17.5 µg/mL; MIC (Pseudomonas acruginosa; [23]): 17.5 µg/mL; MIC (Staphylococcus aureus; 209P, pH 7.4, strain 209P): 7.5 µg/mL; MIC (Staphylococcus aureus; pH 7.4, strain 59N): 7.5 µg/mL; MIC (Staphylococcus aureus; pH 7.4, strain Gray): 7.5 µg/mL; MIC (Staphylococcus aureus; pH 7.4, strain Wood): 7.5 µg/mL; MIC (Staphylococcus aureus; pH 7.4, strain Zeigler): 3 µg/mL"
NCc1[nH]c2ccc(Cl)cc2c1-c1ccc(Cl)cc1Cl [E],17.5 µg/mL,3 µg/mL,7.5 µg/mL,3 µg/mL,7.5 µg/mL,3 µg/mL,3 µg/mL,3 µg/mL,3 µg/mL,3 µg/mL,3 µg/mL,3 µg/mL,17.5 µg/mL,3 µg/mL,17.5 µg/mL,3 µg/mL,3 µg/mL,0.8 µg/mL,3 µg/mL,3 µg/mL,"MIC (Escherichia coli; [16]): 3 µg/mL; MIC (Escherichia coli; [17]): 3 µg/mL; MIC (Escherichia coli; [18]): 3 µg/mL; MIC (Pseudomonas acruginosa; [19]): 7.5 µg/mL; MIC (Pseudomonas acruginosa; [20]): 17.5 µg/mL; MIC (Pseudomonas acruginosa; [21]): 17.5 µg/mL; MIC (Pseudomonas acruginosa; [22]): 7.5 µg/mL; MIC (Pseudomonas acruginosa; [23]): 17.5 µg/mL; MIC (Staphylococcus aureus; 209P, pH 7.4, strain 209P): 3 µg/mL; MIC (Staphylococcus aureus; pH 7.4, strain 59N): 3 µg/mL; MIC (Staphylococcus aureus; pH 7.4, strain Gray): 3 µg/mL; MIC (Staphylococcus aureus; pH 7.4, strain Wood): 3 µg/mL; MIC (Staphylococcus aureus; pH 7.4, strain Zeigler): 0.8 µg/mL"
"NCc1[nH]c2cc(Br)c(Cl)cc2c1-c1ccccc1 [D, 2-aminomethyl-6-bromo-5-chloro-3-phenylindole]",3 µg/mL,3 µg/mL,3 µg/mL,3 µg/mL,3 µg/mL,3 µg/mL,3 µg/mL,3 µg/mL,3 µg/mL,3 µg/mL,3 µg/mL,3 µg/mL,7.5 µg/mL,3 µg/mL,3 µg/mL,3 µg/mL,3 µg/mL,3 µg/mL,3 µg/mL,3 µg/mL,"MIC (Escherichia coli; [16]): 3 µg/mL; MIC (Escherichia coli; [17]): 3 µg/mL; MIC (Escherichia coli; [18]): 3 µg/mL; MIC (Pseudomonas acruginosa; [19]): 17.5 µg/mL; MIC (Pseudomonas acruginosa; [20]): 7.5 µg/mL; MIC (Pseudomonas acruginosa; [21]): 17.5 µg/mL; MIC (Pseudomonas acruginosa; [22]): 7.5 µg/mL; MIC (Pseudomonas acruginosa; [23]): 7.5 µg/mL; MIC (Staphylococcus aureus; 209P, pH 7.4, strain 209P): 3 µg/mL; MIC (Staphylococcus aureus; pH 7.4, strain 59N): 3 µg/mL; MIC (Staphylococcus aureus; pH 7.4, strain Gray): 3 µg/mL; MIC (Staphylococcus aureus; pH 7.4, strain Wood): 3 µg/mL; MIC (Staphylococcus aureus; pH 7.4, strain Zeigler): 3 µg/mL"
